According to patent US4645769A, “1-oxa-1-dethia-cephalosporin compounds and antibacterial agent comprising the same” (Merck & Co., Inc., priority 1985, dated 1987):
Converted amounts (≈) assume the structure as drawn. Structures can show the parent of a compound that is named as a salt.

What was measured:
[1] = system: Staphylococcus aureus 209 P JC-1; experiment: Minimum Inhibitory Concentration (MIC), antibacterial spectrum in vitro; type: cell-based; conditions: 209PJC1; Staphylococcus aureus 209 P JC-1; read-out: Minimum Inhibitory Concentration (MIC)
[2] = system: Streptococcus faecalis ATCC 8043; experiment: as above; type: cell-based; conditions: Enterococcus faecalis, ATCC8043; Streptococcus faecalis ATCC 8043; read-out: Minimum Inhibitory Concentration (MIC)
[3] = system: Esherichia coli NIHJ JC-2; experiment: as above; type: cell-based
Esherichia coli TEM DC-2 = experiment: as above; type: cell-based; conditions: read-out: Minimum Inhibitory Concentration (MIC)
Enterobacter cloacae P99 = experiment: as above; type: cell-based; conditions: P99, read-out: Minimum Inhibitory Concentration (MIC)
[4] = system: Klebsiella pneumoniae PCI 602; experiment: as above; type: cell-based; conditions: PCI602; Klebsiella pneumoniae PCI 602; read-out: Minimum Inhibitory Concentration (MIC)
[5] = system: Salmonella typhimurium LT-2; experiment: as above; type: cell-based; conditions: Salmonella enterica; Salmonella typhimurium LT-2; read-out: Minimum Inhibitory Concentration (MIC)
Proteus morganii 1510 = experiment: as above; type: cell-based; conditions: Morganella morganii; Proteus morganii 1510; read-out: Minimum Inhibitory Concentration (MIC)
[6] = system: Citrobacter freundii GN-346; experiment: as above; type: cell-based; conditions: GN346; Citrobacter freundii GN-346; read-out: Minimum Inhibitory Concentration (MIC)
[7] = system: Pseudomonas aeruginosa MB-3833; experiment: as above; type: cell-based; conditions: MB3833; Pseudomonas aeruginosa MB-3833; read-out: Minimum Inhibitory Concentration (MIC)
[8] = system: Pseudomonas aeruginosa E-2; experiment: as above; type: cell-based; conditions: E2; Pseudomonas aeruginosa E-2; read-out: Minimum Inhibitory Concentration (MIC)
[9] = system: Pseudomonas aeruginosa RPL-11; experiment: as above; type: cell-based; conditions: RPL11; Pseudomonas aeruginosa RPL-11; read-out: Minimum Inhibitory Concentration (MIC)
[10] = Concentration in Blood Serum after subcutaneous dosing (bioassay using Escherichia coli); type: in vivo; conditions: mouse, sc, 25 mg/Kg subcutaneously, mice; for concentration at 0.5 h: 1/2 hour; for concentration at 0.25 h: 1/4 hour; for concentration at 5 min: 1/12 hour
Experimental: The concentration of the compound in the serum was determined by bioassay using Escherichia coli as assay microorganism.

[11] = system: Staphylococus aureus (Smith I); experiment: Efficacy in Mice Infected with Staphylococus aureus (Smith I); type: in vivo; conditions: Staphylococcus aureus, sc, 168 h, St. aureus (Smith I) intraperitoneal infection, single subcutaneous dose one hour after infection, 7 days
Description: (§1) A systemic infection was produced by intraperitoneal injection of the appropriate pathogen to mice (five male mice in each group, average body weight 20 g), and the mice were received single subcutaneous dose of the compound one hour after the infection.

[12] = system: Pseudomonas aeruginosa (GN 10362); experiment: Efficacy in Mice Infected with Pseudomonas aeruginosa (GN 10362); type: in vivo; conditions: GN10362, sc, 168 h, Ps. aeruginosa (GN 10362) intraperitoneal infection, mice, single subcutaneous dose one hour after infection, 7 days, read-out: ED 50
Description: as §1

Pseudomonas aeruginosa = experiment: Antibacterial activity against Pseudomonas aeruginosa (from Table 1); type: cell-based; conditions: in words

| Structure (SMILES) | MIC [1] [µg/mL] | MIC [2] [µg/mL] | MIC [3] [µg/mL] | MIC (Esherichia coli TEM DC-2) [µg/mL] | MIC (Enterobacter cloacae P99) [µg/mL] | MIC [4] [µg/mL] | MIC [5] [µg/mL] | MIC (Proteus morganii 1510) [µg/mL] | MIC [6] [µg/mL] | MIC [7] [µg/mL] | MIC [8] [µg/mL] | MIC [9] [µg/mL] | concentration at 0.5 h [10] [ng/mL] | concentration at 0.25 h [10] [ng/mL] | concentration at 5 min [10] [ng/mL] | concentration at 1 h [10] [ng/mL] | ED50 [11] [mg/kg] | ED50 [12] [mg/kg] | effectiveness against Pseudomonas aeruginosa (Pseudomonas aeruginosa) |
| --- | --- | --- | --- | --- | --- | --- | --- | --- | --- | --- | --- | --- | --- | --- | --- | --- | --- | --- | --- |
| CC1OC2C(NC(=O)C(=NOC(C)(C)C(=O)O)c3csc(N)n3)C(=O)N2C(C(=O)[O-])=C1CSc1cc[n+](C)cc1 [Compound 1, (6R,7R)-7-((Z)-2-(2-Aminothiazole-4-yl)-2-(2-carboxyprop-2-oxyimino)acetamide)-(2S)-2-methyl-3-(1-methyl-pyridinium-4-ylthiomethyl)-1-oxa-1-oxa-1-dethiaceph-3-em-4-carboxylate (Sodium Salt)] | 1.56 | 50 | 0.2 | 0.5 | 1 | 0.2 | 0.05 | 0.39 | 0.78 | 3.13 | 3.13 | 4 | 10600 | 18500 | 14500 | 2200 | 0.028 | 0.16 | effective against Pseudomonas aeruginosa |
| C[n+]1ccc(SCC2=C(C(=O)[O-])N3C(=O)C(NC(=O)C(=NOC(C)(C)C(=O)O)c4csc(N)n4)C3OC2)cc1 [Compound 14, (6R,7R)-7-((Z)-2-(2-Aminothiazole-4-yl)-2-(2-carboxyprop-2-oxyimino)acetamide-3-(1-methylpyridinium-4-yl-thiomethyl)-1-oxa-1-dethiaceph-3-em-4-carboxylate (Sodium Salt)] | 1.56 | > 100 | 0.1 | 0.25 | 128 | 0.1 | < 0.025 | 3.13 | 50 | 1.56 | 1.56 | 64 | 8800 | 11500 | 18000 | 5000 | 0.016 | 0.13 | effective against Pseudomonas aeruginosa |
| CO[C@@]1(NC(=O)C(C(=O)O)c2ccc(O)cc2)C(=O)N2C(C(=O)O)=C(CSc3nnnn3C)CO[C@@H]21 (stereo partly shown) [Latamoxef, reference compound] | 3.13 (≈ 6.01 µM) | 25 (≈ 48 µM) | 0.1 (≈ 0.192 µM) | – | – | 0.2 (≈ 0.384 µM) | 0.05 (≈ 0.0961 µM) | 0.2 (≈ 0.384 µM) | 1.56 (≈ 3 µM) | 6.25 (≈ 12 µM) | 6.25 (≈ 12 µM) | – | – | – | – | – | 0.67 | 2.9 | – |
